Measurements as given in US6403626B1, “Benzimidazole derivatives” (Synaptic Pharmaceutical Corporation, priority 1994, dated 2002).
Like-named read-outs stand apart in the source and are kept apart here.

Columns and labels:
[1] = molecular target: T1, α1A Human Adrenergic Receptor (Homo sapiens, UniProt P25100); experiment: Equilibrium competition binding, [3H] prazosin, membranes of transfected LM(tk-) cells
T1 construct: expressed in transfected cells; host or cells: LM(tk-) cells
T1 sequence (P25100 1-572): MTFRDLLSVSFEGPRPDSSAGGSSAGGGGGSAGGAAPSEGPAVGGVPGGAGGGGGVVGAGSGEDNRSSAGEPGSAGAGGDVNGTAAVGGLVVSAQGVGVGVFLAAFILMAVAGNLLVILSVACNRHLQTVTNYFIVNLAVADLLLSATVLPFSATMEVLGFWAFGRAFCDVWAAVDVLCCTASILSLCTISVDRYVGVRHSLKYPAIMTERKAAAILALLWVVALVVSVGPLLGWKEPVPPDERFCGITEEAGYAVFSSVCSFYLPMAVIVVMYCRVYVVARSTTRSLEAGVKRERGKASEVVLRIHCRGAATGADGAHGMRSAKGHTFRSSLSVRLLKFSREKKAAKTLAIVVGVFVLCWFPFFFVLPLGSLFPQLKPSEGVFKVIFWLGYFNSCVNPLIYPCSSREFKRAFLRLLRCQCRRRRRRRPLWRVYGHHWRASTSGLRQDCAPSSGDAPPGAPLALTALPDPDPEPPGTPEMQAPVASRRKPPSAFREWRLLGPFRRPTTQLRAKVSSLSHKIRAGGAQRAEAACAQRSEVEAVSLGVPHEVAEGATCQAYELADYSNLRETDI

[2] = molecular target: T2, α2B Human Adrenergic Receptor (Homo sapiens, UniProt P18089); type: cell-based
T2 construct: expressed in transfected cells; host or cells: Y-1 cells
T2 sequence (P18089 1-450): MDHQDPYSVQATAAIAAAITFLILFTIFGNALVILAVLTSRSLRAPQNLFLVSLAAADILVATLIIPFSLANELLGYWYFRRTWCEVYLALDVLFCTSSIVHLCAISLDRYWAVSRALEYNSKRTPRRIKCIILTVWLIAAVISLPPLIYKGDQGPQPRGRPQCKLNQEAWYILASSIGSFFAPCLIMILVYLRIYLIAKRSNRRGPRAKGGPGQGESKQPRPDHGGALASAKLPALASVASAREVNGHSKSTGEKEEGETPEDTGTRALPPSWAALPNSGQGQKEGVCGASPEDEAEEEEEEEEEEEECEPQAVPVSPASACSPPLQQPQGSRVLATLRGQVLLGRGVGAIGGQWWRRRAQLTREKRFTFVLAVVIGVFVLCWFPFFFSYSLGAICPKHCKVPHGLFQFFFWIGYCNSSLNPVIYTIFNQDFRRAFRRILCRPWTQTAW

[3] = molecular target: T2, α2B Human Adrenergic Receptor; experiment: Equilibrium competition binding, [3H] rauwolscine, membranes of transfected Y-1 cells
[4] = molecular target: T3, α1C Human Adrenergic Receptor (Homo sapiens, UniProt P35348); experiment: Equilibrium competition binding, [3H] prazosin, membranes of transfected LM(tk-) cells
T3 construct: expressed in transfected cells; host or cells: LM(tk-) cells
T3 sequence (P35348 1-466): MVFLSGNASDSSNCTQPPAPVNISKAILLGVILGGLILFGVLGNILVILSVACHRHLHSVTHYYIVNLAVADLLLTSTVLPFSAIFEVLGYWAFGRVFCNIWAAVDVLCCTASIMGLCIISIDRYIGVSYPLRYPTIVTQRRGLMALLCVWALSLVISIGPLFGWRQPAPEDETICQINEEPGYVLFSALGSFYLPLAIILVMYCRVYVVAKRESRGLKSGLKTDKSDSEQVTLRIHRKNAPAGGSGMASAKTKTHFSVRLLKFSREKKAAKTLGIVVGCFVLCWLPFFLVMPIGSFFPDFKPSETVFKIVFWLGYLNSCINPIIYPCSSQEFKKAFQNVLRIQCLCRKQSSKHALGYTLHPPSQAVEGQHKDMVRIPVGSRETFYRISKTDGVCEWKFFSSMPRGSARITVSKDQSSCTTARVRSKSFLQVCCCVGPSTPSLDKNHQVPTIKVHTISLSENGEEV
Description: Binding and functional assays were performed using stably transfected human alpha adrenergic receptors. Equilibrium competition binding assays were performed with membrane preparations from cultured LM(tk-) cells stably transfected with the cloned human adrenoceptor subtypes except for α2b, which was expressed in Y-1 cells, using [^3H] prazosin for α1 receptors and [^3H] rauwolscine for α2 receptors.
Transfected cells from culture flasks were scraped into 5 ml of 5 mM Tris-HCl, 5 mM EDTA, pH 7.5, and lysed by sonication. The cell lysates were centrifuged at 1000 rpm for 5 min at 4° C., and the supernatant was centrifuged at 30,000×g for 20 min at 4° C. The pellet was suspended in 50 mM Tris-HCl, 1 mM MgCl2, and 0.1% ascorbic acid at pH 7.5. Binding of α2 antagonist [^3H] rauwolscine ([…]) to membrane preparations of LM(tk-) cells was done in a final volume of 0.25 ml and incubated at 37° C. for 20 min. Nonspecific binding was determined in the presence of 10 μM phentolamine. The reaction was stopped by filtration through GF/B filters using a cell harvester.
The construct involved ligation three partial overlapping fragments: a 5′ 0.6 kb HincII genomic clone, a central 1.8 EcoRI hippocampal cDNA clone, and a 3′ 0.6 Kb PstI genomic clone. The hippocampal cDNA fragment overlaps with the 5′ and 3′ genomic clones so that the HincII and PstI sites at the 5 and 3′ ends of the cDNA clone, respectively, were utilized for ligation. This full-length clone was cloned into the KpnI site of the expression vector, using the 5′ and 3′ KpnI sites of the fragment, derived from vector (i.e., pBluescript) and 3′-untranslated sequences, respectively. Stable cell lines were selected as described above.

[5] = cloned human receptor, [3H] prazosin, read-out: pKi Alpha-1 C (converted)
[6] = inhibition of forskolin-stimulated cAMP, NA: Not Active, read-out: pEC50 Alpha-2 B (converted)
[7] = cloned human receptor, [3H] rauwolscine, read-out: pKi Alpha-2 B (converted)
[8] = cloned human receptor, [3H] prazosin, read-out: pKi Alpha-1 A (converted)
[9] = cloned human receptor, [3H] prazosin

Row | Ki [1, 8] | Structure (SMILES) | Ki [1] | EC50 [2] | I.A Alpha-2 B [2] | Ki [3] | Ki [4, 5] | I.A Alpha-2 B ([2]; functional cAMP assay) | EC50 [2, 6] | Ki [3, 7] | Ki [4] | pKi Alpha-1 A [1, 9] | pEC50 Alpha-2 B ([2]; inhibition of forskolin-stimulated cAMP, NA: Not Active) | pKi Alpha-2 B ([3]; cloned human receptor, [3H] rauwolscine) | pKi Alpha-1 C [4, 9]
1 |  | c1nc2ccc(NC3=NCCN3)cc2[nH]1 [Example 1, 5-(2-Imidazolin-2-ylamino)Benzimidazole] | 6.76 µM | 0.0447 µM | 1.00 | 0.0741 µM | 5.25 µM |  |  |  |  |  |  |  | 
2 |  | Brc1c(NC2=NCCN2)ccc2nc[nH]c12 [Example 2, 4-Bromo-5-(2-imidazolin-2-ylamino)Benzimidazole] | 0.955 µM |  |  |  |  | 1.00 | 0.0186 µM | 0.0204 µM | 1.7 µM |  |  |  | 
3 |  | Clc1c(NC2=NCCN2)ccc2nc[nH]c12 [Example 3, 4-Chloro-5-(2-imidazolin-2-ylamino)Benzimidazole] | 0.537 µM |  |  |  | 1.91 µM | 1.00 | 0.0126 µM | 0.0155 µM |  |  |  |  | 
4 | 0.603 µM | Cc1c(N=C2NCCN2)ccc2[nH]cnc12 [Example 4, 4-Methyl-5-(2-imidazolin-2-ylamino)Benzimidazole] |  |  |  |  | 0.724 µM |  | 0.00977 µM | 0.00912 µM |  |  |  |  | 
5 |  | Ic1c(NC2=NCCN2)ccc2nc[nH]c12 [Example 5, 4-Iodo-5-(2-imidazolin-2-ylamino)Benzimidazole] | 0.537 µM | 0.0468 µM | 1.00 | 0.0309 µM | 2.24 µM |  |  |  |  |  |  |  | 
6 |  | CCCc1c(NC2=NCCN2)ccc2nc[nH]c12 [Example 7, 4-n-Propyl-5-(2-imidazolin-2-ylamino)Benzimidazole] | 0.269 µM | 0.2 µM | 1.00 |  | 2 µM |  |  |  |  |  |  |  | 
7 |  | CCCCc1c(NC2=NCCN2)ccc2nc[nH]c12 [Example 8, 4-n-Butyl-5-(2-imidazolin-2-ylamino)Benzimidazole] | 0.676 µM |  |  |  | 2 µM | 0.80 | 0.234 µM | 0.0501 µM |  |  |  |  | 
8 |  | Cn1cnc2cc(NC3=NCCN3)ccc21 [Example 9, 1-Methyl-5-(2-imidazolin-2-ylamino)Benzimidazole] | 2.75 µM |  |  |  | 6.76 µM | 1.00 | 0.0589 µM | 0.0468 µM |  |  |  |  | 
9 |  | Cn1cnc2c(Br)c(NC3=NCCN3)ccc21 [Example 10, 1-Methyl-4-bromo-5-(2-imidazolin-2-ylamino)Benzimidazole] | 0.617 µM | 0.102 µM | 1.00 | 0.0282 µM | 0.851 µM |  |  |  |  |  |  |  | 
10 |  | Cn1cnc2ccc(NC3=NCCN3)c(Br)c21 [Example 12, 3-Methyl-4-bromo-5-(imidazolin-2-ylamino)Benzimidazole] |  |  |  |  |  | 1.00 |  |  |  | 7.02 | 7.51 | 7.84 | 6.46
11 |  | COc1ccc(Cn2cnc3c(Br)c(NC4=NCCN4)ccc32)cc1 [Example 36, 1-(4-Methoxybenzyl)-4-bromo-5-(2-imidazolin-2-ylamino)Benzimidazole] | 0.813 µM |  |  |  |  | 0.60 | 0.282 µM | 0.107 µM | 6.46 µM |  |  |  | 
12 |  | OCCn1cnc2c(Br)c(NC3=NCCN3)ccc21 [Example 38, 1-(2-Hydroxyethyl)-4-bromo-5-(2-imidazolin-2-ylamino)Benzimidazole] | 7.24 µM |  |  |  |  | 0.80 | 0.158 µM | 0.525 µM | 6.76 µM |  |  |  | 
13 |  | Cc1nc2ccc(NC3=NCCN3)c(Br)c2[nH]1 [Example 42, 2-Methyl-4-bromo-5-(2-imidazolin-2-ylamino)Benzimidazole] | 1.62 µM | 0.0977 µM | 0.60 | 0.0234 µM | 8.13 µM |  |  |  |  |  |  |  | 
14 |  | CCc1nc2ccc(NC3=NCCN3)c(Br)c2[nH]1 [Example 43, 2-Ethyl-4-bromo-5-(2-imidazolin-2-ylamino)Benzimidazole] | 1.74 µM | 0.162 µM | 0.80 | 0.0339 µM | 2.14 µM |  |  |  |  |  |  |  | 
15 |  | CC(C)c1nc2ccc(NC3=NCCN3)c(Br)c2[nH]1 [Example 44, 2-Isopropyl-4-bromo-5-(2-imidazolin-2-ylamino)Benzimidazole] | 2.04 µM | 0.0912 µM | 0.80 | 0.0468 µM | 3.09 µM |  |  |  |  |  |  |  | 
16 |  | CC(C)(C)c1nc2ccc(NC3=NCCN3)c(Br)c2[nH]1 [Example 45, 2-tert-Butyl-4-bromo-5-(2-imidazolin-2-ylamino)Benzimidazole] | 4.57 µM | 0.851 µM | 0.70 | 0.0832 µM | 2.19 µM |  |  |  |  |  |  |  | 
17 |  | FC(F)(F)c1nc2ccc(NC3=NCCN3)c(Br)c2[nH]1 [Example 46, 2-Trifluoromethyl-4-bromo-5-(2-imidazolin-2-ylamino)Benzimidazole] | 7.08 µM | 0.589 µM | 0.80 | 0.105 µM | 10.7 µM |  |  |  |  |  |  |  | 
18 | 1.23 µM | Brc1c(NC2=NCCN2)ccc2nc(C(c3ccccc3)c3ccccc3)[nH]c12 [Example 48, 2-Diphenylmethyl-4-bromo-5-(2-imidazolin-2-ylamino)Benzimidazole] |  |  |  |  | 0.12 µM | 0.80 | 0.2 µM | 0.661 µM |  |  |  |  | 
19 |  | Brc1cc2nc[nH]c2c(Br)c1NC1=NCCN1 [Example 50, 4,6-Dibromo-5-(2-imidazolin-2-ylamino)Benzimidazole] | 0.0355 µM | 0.0209 µM | 0.90 | 0.00234 µM | 0.776 µM |  |  |  |  |  |  |  | 
20 |  | Clc1cc(NC2=NCCN2)cc2[nH]cnc12 [Example 53, 7-Chloro-5-(2-imidazolin-2-ylamino)Benzimidazole] | 0.309 µM | 0.0182 µM | 1.00 | 0.0182 µM | 1 µM |  |  |  |  |  |  |  | 
21 |  | CCCCc1cc(NC2=NCCN2)cc2[nH]cnc12 [Example 56, 7-Butyl-5-(2-imidazolin-2-ylamino)Benzimidazole] | 1.26 µM |  |  |  | 0.589 µM | 0.30 | 0.219 µM | 0.182 µM |  |  |  |  | 
22 |  | Clc1cc(NC2=NCCN2)c(Br)c2[nH]cnc12 [Example 60, 4-Bromo-7-chloro-5-(2-imidazolin-2-ylamino)Benzimidazole] | 0.224 µM | 0.0178 µM | 0.9 | 0.000468 µM | 0.479 µM |  |  |  |  |  |  |  | 
